Among the data in BindingDB's records for doi:10.1021/acsmedchemlett.7b00249 (Vanderbilt University School of Medicine, 2017) are EC50 values, retold here.

For the assay, the target named is Metabotropic glutamate receptor 5 (Rattus norvegicus, UniProt P31424). As to the kind of experiment: Positive allosteric modulation of rat mGlu5 receptor expressed in HEK293A cells assessed as increase in glutamate induced-calcium mobilization preincubated for 2.3 mins followed by glutamate addition measured for 1.9 mins by Fluo-4 AM dye based fluorescence assay. A general note: Calcium assays in cells follow changes in intracellular calcium, usually with a dye or a luminescent sensor.
Sequence of Metabotropic glutamate receptor 5 (P31424 whole entry): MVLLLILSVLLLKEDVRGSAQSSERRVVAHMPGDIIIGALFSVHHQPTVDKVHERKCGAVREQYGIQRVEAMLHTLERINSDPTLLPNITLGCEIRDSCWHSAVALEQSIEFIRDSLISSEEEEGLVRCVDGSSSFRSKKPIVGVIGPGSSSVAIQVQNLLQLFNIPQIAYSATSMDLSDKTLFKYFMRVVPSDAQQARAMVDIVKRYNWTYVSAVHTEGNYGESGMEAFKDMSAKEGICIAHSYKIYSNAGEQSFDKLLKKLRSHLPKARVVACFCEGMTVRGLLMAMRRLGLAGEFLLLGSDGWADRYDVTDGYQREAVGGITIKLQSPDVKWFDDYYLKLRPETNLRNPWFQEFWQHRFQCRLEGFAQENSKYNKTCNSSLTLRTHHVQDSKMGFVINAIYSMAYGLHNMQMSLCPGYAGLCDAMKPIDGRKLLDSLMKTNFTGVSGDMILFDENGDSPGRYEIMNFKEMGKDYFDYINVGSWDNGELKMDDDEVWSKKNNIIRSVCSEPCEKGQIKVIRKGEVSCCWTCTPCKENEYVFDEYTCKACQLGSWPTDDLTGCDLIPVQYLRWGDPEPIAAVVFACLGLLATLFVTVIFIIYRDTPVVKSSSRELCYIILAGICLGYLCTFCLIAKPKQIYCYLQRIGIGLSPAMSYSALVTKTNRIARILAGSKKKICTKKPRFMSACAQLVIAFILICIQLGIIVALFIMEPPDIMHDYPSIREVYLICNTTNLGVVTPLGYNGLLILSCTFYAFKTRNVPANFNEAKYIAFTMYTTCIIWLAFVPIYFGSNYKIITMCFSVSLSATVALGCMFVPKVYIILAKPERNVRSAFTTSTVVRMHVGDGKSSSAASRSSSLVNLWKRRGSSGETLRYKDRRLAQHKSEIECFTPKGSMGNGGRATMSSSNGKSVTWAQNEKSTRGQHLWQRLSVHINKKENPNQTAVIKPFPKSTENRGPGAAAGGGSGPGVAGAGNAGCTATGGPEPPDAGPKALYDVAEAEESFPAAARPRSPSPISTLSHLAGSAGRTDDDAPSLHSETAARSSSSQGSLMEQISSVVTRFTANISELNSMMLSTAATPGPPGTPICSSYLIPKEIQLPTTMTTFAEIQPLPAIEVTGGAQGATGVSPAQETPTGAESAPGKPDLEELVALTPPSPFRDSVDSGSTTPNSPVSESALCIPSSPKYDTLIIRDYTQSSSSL

As usually defined, the EC50 is the concentration giving half of the maximal effect. As for `O=c1nc(OCCOc2ccccc2)ccn1-c1ccc(F)c(F)c1`, the EC50 was 398 nM.
